Assay results taken from US10654866B2, “Selective estrogen receptor degraders” (Eli Lilly and Company, priority 2018, dated 2020).

Experiments:
PRα (PGR) expression = assay: In vivo target inhibition (IVTI) assay (PGR RT-qPCR assay) in MCF7 tumors; parameters: species or system mice; conditions: MCF7 tumor xenograft, 30 mg/kg orally, for 24 hours
Protocol: The purpose of this IVTI assay is to measure the ability of a test compound (SERD) to inhibit PRα gene expression (transcription) downstream of ERα in xenograft tumors implanted in mice.
Implant female NOD SCID mice (22-25 g) from Envigo RMS, Inc., Madison, Wis. with 5×10e^6 MCF7 ER-positive breast cancer cells (ATCC, # HTB-22) subcutaneously in the right flank region in 1:1 HBSS+[…]™ solution (200 μL). Implant a 17-β estradiol pellet (0.18 mg/pellet, 90 day release, from Innovative research) subcutaneously 1 day prior to tumor cell implantation. […] Sacrifice animals using isoflurane anesthesia plus cervical dislocation. Flash freeze tumors and store at −80° C. until processing for RNA isolation and RT-qPCR assay. Collect blood in EDTA tubes, spin down for plasma, and freeze at −80° C. in a 96-well plate. Determine test compound exposures using mass spectrometry.
Pulverize tumors in liquid nitrogen and lyse in 1×RNA lysis buffer (from RNA isolation kits) using Matrix D beads (MP Biomedical, #6913-500) in a FASTPREP-24™ Cell Disrupter machine (MP Biomedical). […] Measure isolated RNA concentration by diluting samples in RNase free water and measuring the absorbance at 260 nm on a plate reader (SpectraMax190). Subtract the average 260 nm absorbance measurement of the blank (RNase free water only) from the 260 nm measurements of all other RNA samples. […]

[1] = system: ZR-75-1 (Breast Cancer Xenograft); assay: In vivo tumor growth inhibition, ZR-75-1 xenograft; parameters: species or system mice; conditions: 28 days
Excerpt: (§1) The purpose of the following xenograft tumor inhibition assay is to measure reduction in tumor volume in response to test compound administration.

[2] = system: HCC1428 (Breast Cancer Xenograft); assay: In vivo tumor growth inhibition, HCC1428 xenograft; parameters: species or system mice; conditions: 28 days
Excerpt: as §1

ERα = ERα (Homo sapiens (Human), UniProt P03372); assay: PRα induction assay in MCF7 cells; type: cell-based; conditions: MCF7 breast cancer cells
Chain of ERα (P03372 whole entry): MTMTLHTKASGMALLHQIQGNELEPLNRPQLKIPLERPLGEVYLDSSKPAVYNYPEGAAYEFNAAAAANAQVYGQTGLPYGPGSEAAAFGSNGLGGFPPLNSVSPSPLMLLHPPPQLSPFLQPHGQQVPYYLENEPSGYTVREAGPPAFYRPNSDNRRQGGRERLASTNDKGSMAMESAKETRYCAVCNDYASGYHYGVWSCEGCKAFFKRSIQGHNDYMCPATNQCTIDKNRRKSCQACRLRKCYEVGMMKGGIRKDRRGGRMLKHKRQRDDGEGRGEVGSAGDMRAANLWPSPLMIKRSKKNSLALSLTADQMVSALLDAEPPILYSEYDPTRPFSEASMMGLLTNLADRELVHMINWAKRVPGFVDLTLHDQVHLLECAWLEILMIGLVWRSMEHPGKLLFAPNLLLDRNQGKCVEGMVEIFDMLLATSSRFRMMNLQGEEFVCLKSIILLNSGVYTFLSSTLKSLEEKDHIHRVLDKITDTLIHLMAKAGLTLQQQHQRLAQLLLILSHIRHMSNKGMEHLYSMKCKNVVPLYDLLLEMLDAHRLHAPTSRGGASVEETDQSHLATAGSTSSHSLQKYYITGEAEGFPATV
Protocol: The purpose of the following PRα induction assay is to determine whether a test compound has agonistic activity against ERα receptor (an agonist would be expected to activate the receptor).
Culture MCF7 (purchased from ATCC HTB-22) in DMEM media supplemented with 10% FBS, 0.01 mg/mL human insulin 1 and 1% penicillin/streptomycin antibiotics and plate the cells (prior to becoming 70% confluent) in 384-well flat-bottom plates at a density of 4,000 cells per well in 20 μL volume in DMEM phenol red free media containing 10% FBS (charcoal stripped). Incubate the cells overnight in a cell culture incubator (5% CO2, 95% relative humidity at 37° C.) and allow the cells to attach to the plate. The following day, dose the cells with test compound. Use an Echo 555 acoustic dispenser to prepare compound serial dilutions (1:3) in a range from 6 μM to 0.0003 μM. Dose the cells with the addition of the test compound (5 μL) from the serial dilution plate to the cell plate producing a final DMSO concentration of 0.2% with a final concentration of the test compound dose range between 2 and 0.0001 μM. For the maximum point use media containing 0.2% of DMSO and for the minimum point, use fulvestrant diluted at 2 μM final concentrations in the growth media containing 0.2% DMSO. After dosing with the test compound, incubate the cell plates at 37° C. and 5% CO2 for 24 hours. Fix the cells by adding 14% para-formaldehyde (10 μL) for 30 minutes at room temperature. Wash cells once with PBS (20 μL) and incubate with PBS (20 μL) containing 0.5% (v/v) TWEEN® 20 for 1 hour. Wash cells twice with PBS (20 μL) containing 0.05% TWEEN® 20 and block with 3% BSA in PBS containing 0.05% TWEEN® 20 and 0.1% TRITON™ X-100 (20 μL/well) for 1 hour at room temperature. […]
The following day, wash cells with PBS 0.05% TWEEN® 20 (2×20 μL) and incubate with secondary antibody (20 μL/well) (1:1000 dilution, Goat anti-rabbit IgM ALEXA FLUOR™ 488) in PBS 1% BSA for 105 minutes at room temperature. […] Scan plates with ACUMEN EXPLORER™ [Laser-scanning fluorescence microplate cytometer manufactured by TTP LABTECH LTD] to measure PRα. […]

In the case of `Oc1ccc2c3c(cnc2c1)-c1ccc(C(F)(F)F)cc1OC3c1ccc(OCCN2CC(CF)C2)cc1` (single isomer, unassigned) [Example 1B, 5-(4-{2-[3-(Fluoromethyl)azetidin-1-yl]ethoxy}phenyl)-8-(trifluoromethyl)-5H-[1]benzopyrano[4,3-c]quinolin-2-ol], the “inhibition of PRα (PGR) expression” value (PRα (PGR) expression) is reported as ~78%, the “Delta T/C % or Regression %” value ([1]; 3 mg/kg oral gavage QD) is reported as 4% and the “Delta T/C % or Regression %” value ([1]; 10 mg/kg oral gavage QD) is reported as 0%. The “Delta T/C % or Regression %” value ([1]; 30 mg/kg oral gavage QD) was 19%, the “Delta T/C % or Regression %” value ([2]; 10 mg/kg oral gavage QD) was −45% and the “Delta T/C % or Regression %” value ([2]; 30 mg/kg oral gavage QD) was −22%. For the same molecule, the agonistic activity (ERα) was “no significant agonistic activity”.
